In a flash point compilation (Sun et al. 2020) one finds flash point data, which are given here for 83 molecules.

SMILES strings stand for the structures.

As for `C#CCC1=C(C)C(OC(=O)[C@H]2[C@H](C=C(C)C)C2(C)C)CC1=O` (stereo partly drawn), the flash point was 139.00 °C.
In turn, `O=C([O-])CN(CCO)CCN(CC(=O)[O-])CC(=O)[O-].[Na+].[Na+].[Na+]` registered a flash point of 100.00 °C.
The same measure for `O=c1oc2ccccc2c(O)c1C(CC(O)c1ccc(-c2ccc(Br)cc2)cc1)c1ccccc1` (stereo not drawn): 218.00 °C.
Regarding `C#CCN1CC(=O)N(COC(=O)C2C(C=C(C)C)C2(C)C)C1=O` (stereo not drawn), the flash point came to 110.00 °C.
The same measure for `CC(C)(C)C(=O)C(Oc1ccc(Cl)cc1)n1cncn1` (stereo not drawn): 72.00 °C.
On to `CC(C)C1=CC2=CC[C@@H]3[C@](C)(CCC[C@@]3(C)C(=O)O)[C@H]2CC1`, for which the flash point is 187.00 °C.
`CC(C)CCCCCCCOP(=S)([S-])OCCCCCCCC(C)C.CC(C)CCCCCCCOP(=S)([S-])OCCCCCCCC(C)C.[Zn+2]` gave a flash point of 280.00 °C.
The same measure for `CC(C)CCCCCOP(=S)([S-])OCCCCCC(C)C.CC(C)CCCCCOP(=S)([S-])OCCCCCC(C)C.[Zn+2]`: 160.00 °C; for `CC(C)N(C(=O)SCC(Cl)=C(Cl)Cl)C(C)C`: 90.00 °C; for `CC(C)N(C(=O)SCC(Cl)=CCl)C(C)C`: 96.00 °C.
The same measure for `CC1(C)C(C(=O)OC(C#N)c2cccc(Oc3ccccc3)c2)C1C(Br)C(Br)(Br)Br` (stereo not drawn): 26.00 °C.
As for `COP(=S)(OC)Oc1ccc(SC)c(C)c1`, the figure is 170.00 °C; as for `Cc1cc(C)cc(N)c1.Cc1ccc(C)c(N)c1.Cc1ccc(N)c(C)c1.Cc1ccc(N)cc1C.Cc1cccc(C)c1N.Cc1cccc(N)c1C`, 97.00 °C.
For the molecule `COc1nc(C)nc(NC(=O)NS(=O)(=O)c2ccccc2CCC(F)(F)F)n1`, the flash point was 100.00 °C.
On to `CCC(CC)C(=O)OCCOCCOCCOC(=O)C(CC)CC`, for which the flash point came out at 196.00 °C.
As for `CC(C)CC(C)C(C)C.CCCC(C)CC(C)C.CCCCC(C)C(C)C` (stereo not drawn), the figure is 24.00 °C; as for `CCCCC(CC)CN1C(=O)C2C3C=CC(C3)C2C1=O` (stereo not drawn), 177.00 °C.
For the molecule `CCCCCCC(O)C/C=C\CCCCCCCC(=O)OCC(COC(=O)CCCCCCC/C=C\CC(O)CCCCCC)OC(=O)CCCCCCC/C=C\CC(O)CCCCCC` (stereo not drawn), the flash point turned out to be 229.00 °C.
Regarding `CCCN(CCCl)c1c([N+](=O)[O-])cc(C(F)(F)F)cc1[N+](=O)[O-]`, the flash point worked out at 30.00 °C.
As for `CCOC(=O)C1CC(=O)C(=C(O)C2CC2)C(=O)C1` (stereo not drawn), the figure is 133.00 °C; as for `CCOP(=O)(OCC)SCCSCC.CCOP(=S)(OCC)OCCSCC`, 45.00 °C.
`CCOP(=S)(Oc1ccc([N+](=O)[O-])cc1)c1ccccc1` (stereo not drawn): the flash point is 30.00 °C.
As for `CCOP(=S)(OCC)SCn1c(=O)oc2cc(Cl)ccc21`, the figure is 100.00 °C.
Regarding `CCOP(=S)(OCC)SCSCC`, the flash point was 160.00 °C.
In the case of `CCOP(=S)(OCC)SCSP(=S)(OCC)OCC`, the flash point turned out to be 176.00 °C.
As for `C#CCOc1cccc(-c2cc(C(F)(F)F)nc(S(=O)CC)n2)c1` (stereo not drawn), the figure is 240.00 °C; as for `CN(C)CCCC1(c2ccccc2)C(=O)N(N(C)Cc2ccccc2F)c2ccccc21` (stereo not drawn), 193.00 °C.
Molecule `COc1nn(CSP(=S)(OC)OC)c(=O)s1` registered a flash point of 100.00 °C.
In turn, `C[C@@H]1[C@@H](c2ccc(Cl)cc2)SC(=O)N1C(=O)NC1CCCCC1` showed a flash point of 100.00 °C.
`C[Si]1(C)O[Si](C)(C)O[Si](C)(C)O[Si](C)(C)O1` registered a flash point of 55.00 °C.
As for `C[Si]1(C)O[Si](C)(C)O[Si](C)(C)O[Si](C)(C)O[Si](C)(C)O[Si](C)(C)O1`, the figure is 91.00 °C; as for `c1ccc(-c2ccccc2)cc1` [1,1'-biphenyl], 113.00 °C.
The same measure for `CC1=Nc2ccc3ccccc3c2C1(C)C` [1,1,2-trimethylbenzo[e]indole]: 182.00 °C; for `CC(Cl)(Cl)[N+](=O)[O-]` [1,1-dichloro-1-nitroethane]: 76.00 °C.
As for `CC(C)OC(C)C(Cl)Cl` (stereo not drawn) [1,1-dichloro-2-propan-2-yloxypropane], the figure is 85.00 °C; as for `CC(Cl)Cl` [1,1-dichloroethane], -6.00 °C; as for `C=C(Cl)Cl` [1,1-dichloroethene], -10.00 °C.
For the molecule `CCOC(C)OCC` [1,1-diethoxyethane], the flash point is -21.00 °C.
Molecule `CC(C)c1ccc(NC(=O)N(C)C)cc1` [1,1-dimethyl-3-(4-propan-2-ylphenyl)urea] returned a flash point of 100.00 °C.
The same measure for `CN(C)N` [1,1-dimethylhydrazine]: -15.00 °C; for `Clc1c(Cl)c(Cl)c(Cl)c(Cl)c1Cl` [1,2,3,4,5,6-hexachlorobenzene]: 242.00 °C; for `O=[N+]([O-])c1c(Cl)c(Cl)c(Cl)c(Cl)c1Cl` [1,2,3,4,5-pentachloro-6-nitrobenzene]: 127.00 °C.
For `c1ccc2c(c1)CCCC2` [1,2,3,4-tetrahydronaphthalene], the flash point came to 80.00 °C.
As for `Clc1ccc(-c2ccc(Cl)c(Cl)c2Cl)c(Cl)c1Cl` [1,2,3-trichloro-4-(2,3,4-trichlorophenyl)benzene], the figure is 141.00 °C.
Consider `ClC=C(Cl)CCl` [1,2,3-trichloroprop-1-ene], for which the flash point was found to be 85.00 °C.
In turn, `ClCC(Cl)CCl` [1,2,3-trichloropropane] yielded a flash point of 82.00 °C.
The same measure for `CCc1cccc(CC)c1CC` [1,2,3-triethylbenzene]: 83.00 °C; for `Clc1cc(Cl)c(Cl)cc1Cl` [1,2,4,5-tetrachlorobenzene]: 155.00 °C; for `CC(C)c1ccccc1C(C)C` [1,2-di(propan-2-yl)benzene]: 77.00 °C.
As for `O=[N+]([O-])c1cccc(Cl)c1Cl` [1,2-dichloro-3-nitrobenzene], the figure is 124.00 °C.
The same measure for `O=[N+]([O-])c1ccc(Cl)c(Cl)c1` [1,2-dichloro-4-nitrobenzene]: 124.00 °C; for `Clc1ccccc1Cl` [1,2-dichlorobenzene]: 66.00 °C; for `ClCCCl` [1,2-dichloroethane]: 13.00 °C.
In turn, `CC(=O)OC(Cl)CCl` (stereo not drawn) [1,2-dichloroethyl acetate] yielded a flash point of 153.00 °C.
The same measure for `CC(Cl)CCl.ClC=CCCl` (stereo not drawn) [1,2-dichloropropane;(E)-1,3-dichloroprop-1-ene]: 17.00 °C; for `CC(Cl)CCl` (stereo not drawn) [1,2-dichloropropane]: 16.00 °C; for `CCOCCOCC` [1,2-diethoxyethane]: 35.00 °C.
The same measure for `O=C=Nc1ccc2ccccc2c1N=C=O` [1,2-diisocyanatonaphthalene]: 192.00 °C.
`Cc1cccc([N+](=O)[O-])c1C` [1,2-dimethyl-3-nitrobenzene]: the flash point came out at 107.00 °C.
The same measure for `c1ccc(-c2ccccc2-c2ccccc2)cc1` [1,2-diphenylbenzene]: 163.00 °C; for `Cc1ccccc1C` [1,2-xylene]: 17.00 °C; for `CC12CCC(CC1)C(C)(C)O2` [1,3,3-trimethyl-2-oxabicyclo[2.2.2]octane]: 49.00 °C.
The same measure for `ClC1=C(Cl)C2(Cl)C3C(Cl)C(Cl)CC3C1(Cl)C2(Cl)Cl` (stereo not drawn) [1,3,4,7,8,9,10,10-octachlorotricyclo[5.2.1.02,6]dec-8-ene]: 107.00 °C.
The same measure for `C1N2CN3CN1CN(C2)C3` [1,3,5,7-tetrazatricyclo[3.3.1.13,7]decane]: 250.00 °C; for `C1OCOCO1` [1,3,5-trioxane]: 45.00 °C.
In the case of `Cc1c(Cl)cccc1Cl` [1,3-dichloro-2-methylbenzene], the flash point was determined as 82.00 °C.
As for `CC1(C)C(=O)N(Cl)C(=O)N1Cl` [1,3-dichloro-5,5-dimethylimidazolidine-2,4-dione], the figure is 174.00 °C; as for `Clc1cccc(-c2cc(Cl)cc(Cl)c2)c1` [1,3-dichloro-5-(3-chlorophenyl)benzene], 141.00 °C.
`Clc1cccc(Cl)c1` [1,3-dichlorobenzene] registered a flash point of 63.00 °C.
As for `OC(CCl)CCl` [1,3-dichloropropan-2-ol], the figure is 74.00 °C.
`Cc1c(N=C=O)cccc1N=C=O` [1,3-diisocyanato-2-methylbenzene] registered a flash point of 132.00 °C.
`CNC(=O)NC` [1,3-dimethylurea] displayed a flash point of 154.00 °C.
In the case of `C1COCO1` [1,3-dioxolane], the flash point came out at 2.00 °C.
The same measure for `Cc1cccc(C)c1` [1,3-xylene]: 29.00 °C; for `Clc1ccc(Cl)cc1` [1,4-dichlorobenzene]: 66.00 °C.
As for `CCc1ccc(CC)cc1` [1,4-diethylbenzene], the figure is 56.00 °C.
The same measure for `COc1ccc(OC)cc1` [1,4-dimethoxybenzene]: 88.00 °C; for `O=C=Nc1cccc2c(N=C=O)cccc12` [1,5-diisocyanatonaphthalene]: 155.00 °C.
With `ClCCCCCCCl` [1,6-dichlorohexane], the flash point is 74.00 °C.
Turning to `OOC1(OOC2(O)CCCCC2)CCCCC1` [1-(1-hydroperoxycyclohexyl)peroxycyclohexan-1-ol], the flash point amounted to 157.00 °C.
`CCCCOCCOCCCC` [1-(2-butoxyethoxy)butane]: the flash point is 85.00 °C.
`CC1CCC(C(C)(C)OO)CC1` (stereo not drawn) [1-(2-hydroperoxypropan-2-yl)-4-methylcyclohexane] had a flash point of 53.00 °C.
The same measure for `CC(O)COCC(C)O` (stereo not drawn) [1-(2-hydroxypropoxy)propan-2-ol]: 138.00 °C.
